One assay concerns GP IIb. Briefly: Flow cytometry of platelet antigen expression, platelet rich plasma. The class given is cell-based, human. Particulars: PRP, desmethylsertraline 64.2 ng/ml. A general note: In flow cytometry, cells or beads pass a laser one at a time.
The next assay relates to human platelets. Briefly: Platelet inhibition / platelet activation state, overall statement. It counts as cell-based. Particulars: platelet rich plasma and whole blood. The method, then:
Trisodium citrate (3.8%) and whole blood is immediately mixed in a 1:9 ratio, and then centrifuged at 1200 g for 2.5 minutes, to obtain platelet-rich plasma (PRP), which is kept at room temperature for use within 1 hour for platelet aggregation studies. Platelet count is determined in each PRP sample with a Coulter Counter ZM (Coulter Co., Hialeah, Fla.). Platelet numbers are adjusted to 3.50×10^8/ml for aggregation with homologous platelet-poor plasma. PRP and whole blood aggregation tests are performed simultaneously. Whole blood is diluted 1.1 with the 0.5 ml PBS, and then swirled gently to mix . […] Platelet aggregability are expressed as the percentage of light transmittance change from baseline using platelet-poor plasma as a reference at the end of recording time for plasma samples, or as a change in electrical impedance for whole blood samples. Aggregation curves are recorded for 4 minutes and analyzed according to internationally established standards using Aggrolinkg® software.
Venous blood (8 ml) was collected in a plastic tube containing 2 ml of acid-citrate-dextrose (ACD) (7.3 g citric acid, 22.0 g sodium citrate×2H2O and 24.5 glucose in 1000 ml distilled water) and mixed well. […] Samples were stored in the refrigerator at +4 °C, and analyzed on a Becton Dickinson FACScan flow cytometer with laser output of 15 mw, excitation at 488 nm, and emission detection at 530±30 nm. […]

On to `N[C@H]1CC[C@@H](c2ccc(Cl)c(Cl)c2)c2ccccc21` [Desmethyl sertraline, N-desmethylsertraline], for which the “GP IIb (mean) log fluorescence intensity” value in the assay on GP IIb (healthy volunteers) was determined as 37. Also, in the assay with GP IIb (post-angioplasty patient on aspirin), the “GP IIb (peak) log fluorescence intensity” value was found to be 20. In addition, the “platelet inhibition / platelet activation state, in words” value was “potent dose-dependent effects inhibiting human platelets” with human platelets and “significantly reduces the platelet activation state” in the assay with human platelets (listed as NDMS).
